# “And” between values parts separate entries of the source, which are not always exact repeats. Identical values can stand only once.
# Tests used:
# LATS1 = molecular target: T1, LATS1 (Homo sapiens, UniProt O95835); test: In vitro LATS1 kinase inhibition assay (HTRF); type: biochemical; settings: for IC50: 3000 μM ATP, n = 2; for LATS1 kinase activity: Fig.5b
# T1 construct: purchased Signalchem
# T1 sequence (O95835 1-1130): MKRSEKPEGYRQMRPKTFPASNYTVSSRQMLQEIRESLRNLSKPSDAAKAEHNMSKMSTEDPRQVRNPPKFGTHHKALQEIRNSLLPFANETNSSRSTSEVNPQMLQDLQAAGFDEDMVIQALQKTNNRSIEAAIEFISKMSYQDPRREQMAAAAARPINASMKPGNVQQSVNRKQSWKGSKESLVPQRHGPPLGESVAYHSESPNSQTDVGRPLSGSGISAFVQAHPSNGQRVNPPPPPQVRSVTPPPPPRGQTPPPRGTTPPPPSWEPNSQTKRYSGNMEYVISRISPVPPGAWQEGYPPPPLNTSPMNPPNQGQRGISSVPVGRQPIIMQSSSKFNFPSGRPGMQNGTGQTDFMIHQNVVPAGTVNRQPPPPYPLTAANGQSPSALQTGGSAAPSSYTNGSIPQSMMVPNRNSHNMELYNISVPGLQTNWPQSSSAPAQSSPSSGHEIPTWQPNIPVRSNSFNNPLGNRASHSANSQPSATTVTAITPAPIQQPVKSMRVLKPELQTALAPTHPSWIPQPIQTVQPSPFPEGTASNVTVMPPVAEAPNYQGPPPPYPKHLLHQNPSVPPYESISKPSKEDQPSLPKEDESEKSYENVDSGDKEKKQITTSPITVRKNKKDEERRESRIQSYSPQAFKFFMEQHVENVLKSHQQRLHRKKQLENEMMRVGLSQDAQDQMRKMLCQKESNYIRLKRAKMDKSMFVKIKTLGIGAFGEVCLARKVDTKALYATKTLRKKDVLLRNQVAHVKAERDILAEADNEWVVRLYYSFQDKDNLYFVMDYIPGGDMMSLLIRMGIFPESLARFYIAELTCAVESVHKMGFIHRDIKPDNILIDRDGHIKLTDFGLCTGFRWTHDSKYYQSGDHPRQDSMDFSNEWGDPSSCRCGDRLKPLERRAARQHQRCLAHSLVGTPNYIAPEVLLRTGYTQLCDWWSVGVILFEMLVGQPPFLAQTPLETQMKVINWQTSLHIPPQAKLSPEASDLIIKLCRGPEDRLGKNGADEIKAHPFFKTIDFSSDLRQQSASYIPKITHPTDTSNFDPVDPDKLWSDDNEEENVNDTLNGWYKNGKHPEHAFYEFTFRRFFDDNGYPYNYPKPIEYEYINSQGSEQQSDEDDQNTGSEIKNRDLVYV
# Procedure: The kinase activity of LATS1 and LATS2 were performed based on an adapted and optimised HTRF Kinase Binding assay (Cisbio). Briefly, the concentration-response curves with compound concentration range of 10,000 to 0.17 nM with 3-fold serial dilution and 1X Kinase enzymatic buffer (Cisbio), 1.2 nM LATS1 or LATS2 kinases (Signalchem), 0.5 μM biotinylation labelled YAP peptide (Vivace) were dispensed into 384-well microplates by automated digital dispenser Echo/POD with the final DMSO concentration in all wells at 0.5%. To start the enzymatic reaction, 3000 μM ATP (for LATS1) or 6000 μM ATP (for LATS2) were added using multidrop in a 10-μl volume and incubated for 90 min at 30 °C. Subsequently, 10 μl of HTRF KinEASE detection buffer (Cisbio) containing 31.25 nM acceptor conjugate (streptavidin-XL665) and 1:100 donor conjugate (TK antibody labelled with Eu^3+-Cryptate) mixture were added and incubated at RT for 60 min, and the fluorescence emission at two different wavelengths was measured (615 nm and 665 nm) on Envision. […] The inhibition was calculated by the formula, inhibition % = (HIGH − ratio) × 100/ (High − LOW). HIGH control stands for 0.5% DMSO with kinase and LOW control stands for 0.5% DMSO without kinase. The data was analysed by Xlfit software. The IC50 values were determined by fitting to a standard four-parameter logistic using GraphPad Prism.
# [1] = system: YAP/TAZ target, ESR1 and ERα target gene mRNA in BTO-02; test: qPCR gene expression in breast tumour organoids BTO-02; type: cell-based, human; settings: BTO-02, 2 μM for 2 days; for ANKRD1 mRNA (qPCR, relative to DMSO) / CTGF mRNA (qPCR, relative to DMSO) / CYR61 mRNA (qPCR, relative to DMSO) / VGLL3 mRNA (qPCR, relative to DMSO): Fig.5g; for ESR1 mRNA (qPCR, relative to DMSO) / GREB1 mRNA (qPCR, relative to DMSO) / TFF1 mRNA (qPCR, relative to DMSO): Fig.5h;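 as to all read-outs here: relative mRNA abundance computed by the ΔCt approach from SYBR-based real-time qPCR, with GAPDH as internal housekeeping reference for normalisation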
# MCF-7 cells = test: Colony-formation assay, MCF-7 (wild-type and ESR1 knock-in); type: cell-based, human; settings: for Rel. colony (colony-formation assay): MCF-7, VT02956 (2 μM), VT02484 (2 μM) or Palbociclib (0.1 μM) alone or in combinations, Fig.6d; for Relative colony formation: 1 μM 4OHT, 0.2 μM Fulvestrant, 2 μM VT02956, 2 μM VT02484, Fig.6g
# Procedure: […] The drugs were refreshed every 2–4 days. The colonies were then fixed with 4% paraformaldehyde for 15 min and stained with 0.1% crystal violet in 20% methanol solution for quantification.
# T47D cells = test: Colony-formation assay, T47D (wild-type and ESR1 knock-in); type: cell-based; settings: 1 μM 4OHT, 0.2 μM Fulvestrant, 2 μM VT02956, 2 μM VT02484, 14 days, Fig.6h
# Procedure: For colony formation, cells were plated into 12-well plate with a constant density at the start date of treatment in triplicate with the indicated compounds and further cultured for 10 days (MCF-7) or 14 days (T47D). The drugs were refreshed every 2–4 days. The colonies were then fixed with 4% paraformaldehyde for 15 min and stained with 0.1% crystal violet in 20% methanol solution for quantification.
# [2] = system: VGLL3, ESR1, YAP/TAZ target and ERα target gene mRNA in MCF-7 cells; test: qPCR gene expression in MCF-7 cells;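 as to all read-outs here: SYBR Green real-time PCR, mRNA abundance computed by the ΔCt approach with GAPDH transcript as the internal normalisation control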; settings: MCF-7, 2 µM for 2 days; for ANKRD1 mRNA (qPCR, relative to DMSO) / LATS2 mRNA (qPCR, relative to DMSO) / VGLL3 mRNA (qPCR, relative to DMSO): sheet Fig.s7b (Supplementary Fig. 7c); for ESR1 mRNA (qPCR, relative to DMSO) / GREB1 mRNA (qPCR, relative to DMSO) / TFF1 mRNA (qPCR, relative to DMSO): sheet Fig.s7d (Supplementary Fig. 7e)
# [3] = system: ERα, YAP/TAZ phosphorylation in MCF-7 cells; test: Immunoblot analysis, MCF-7 cells; type: cell-based, human; settings: MCF-7; 0.1, 0.5 and 2 μM for 2 days; Fig. 5f
# CK2a2 = molecular target: T2, CK2a2 (Homo sapiens, UniProt P19784); test: Kinome profiling; type: biochemical; settings: VT02956 (5 nM), read-out: % enzymatic activity relative to DMSO controls
# T2 construct: LATS1/LATS2 enzymes from Signalchem
# PHKg2 = molecular target: T3, PHKg2 (Homo sapiens, UniProt P15735); test: Kinome profiling; type: biochemical; settings: VT02956 (5 nM), read-out: % enzymatic activity relative to DMSO controls
# T3 construct: LATS1/LATS2 enzymes from Signalchem
# SNRK = molecular target: T4, SNRK (Homo sapiens, UniProt Q9NRH2); test: Kinome profiling; type: biochemical; settings: VT02956 (5 nM), read-out: % enzymatic activity relative to DMSO controls
# T4 construct: LATS1/LATS2 enzymes from Signalchem
# T4 sequence (Q9NRH2 whole entry): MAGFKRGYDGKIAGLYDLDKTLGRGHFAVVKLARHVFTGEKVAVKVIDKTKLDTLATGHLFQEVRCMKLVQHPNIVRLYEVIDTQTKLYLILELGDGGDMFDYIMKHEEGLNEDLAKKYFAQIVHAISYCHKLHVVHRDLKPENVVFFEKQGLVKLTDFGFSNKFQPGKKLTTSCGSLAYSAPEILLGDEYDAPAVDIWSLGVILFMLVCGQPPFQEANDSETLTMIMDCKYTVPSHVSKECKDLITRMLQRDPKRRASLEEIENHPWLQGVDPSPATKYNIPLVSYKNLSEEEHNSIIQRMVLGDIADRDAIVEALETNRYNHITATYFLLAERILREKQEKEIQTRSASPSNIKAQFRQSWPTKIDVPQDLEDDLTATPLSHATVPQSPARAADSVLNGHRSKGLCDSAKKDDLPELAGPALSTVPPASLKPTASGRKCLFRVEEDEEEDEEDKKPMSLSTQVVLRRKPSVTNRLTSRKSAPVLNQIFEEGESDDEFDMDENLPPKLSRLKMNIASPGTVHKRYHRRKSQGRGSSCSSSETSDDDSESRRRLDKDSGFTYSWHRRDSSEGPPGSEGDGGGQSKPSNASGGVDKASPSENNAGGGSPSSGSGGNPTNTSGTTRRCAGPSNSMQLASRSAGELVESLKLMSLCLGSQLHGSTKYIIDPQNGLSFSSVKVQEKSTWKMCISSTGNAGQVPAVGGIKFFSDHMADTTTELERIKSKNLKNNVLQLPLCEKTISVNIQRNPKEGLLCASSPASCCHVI
# T3 sequence (P15735 whole entry): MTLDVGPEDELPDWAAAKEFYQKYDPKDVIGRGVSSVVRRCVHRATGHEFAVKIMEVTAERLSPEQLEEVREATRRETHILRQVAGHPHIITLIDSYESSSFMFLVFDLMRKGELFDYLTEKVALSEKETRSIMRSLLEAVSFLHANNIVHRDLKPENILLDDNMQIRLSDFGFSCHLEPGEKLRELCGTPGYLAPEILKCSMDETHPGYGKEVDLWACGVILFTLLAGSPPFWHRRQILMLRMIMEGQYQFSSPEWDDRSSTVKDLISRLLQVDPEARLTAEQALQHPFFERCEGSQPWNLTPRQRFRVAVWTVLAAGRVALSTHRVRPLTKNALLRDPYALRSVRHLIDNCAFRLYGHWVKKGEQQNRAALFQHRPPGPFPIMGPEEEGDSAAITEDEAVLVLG
# T2 sequence (P19784 whole entry): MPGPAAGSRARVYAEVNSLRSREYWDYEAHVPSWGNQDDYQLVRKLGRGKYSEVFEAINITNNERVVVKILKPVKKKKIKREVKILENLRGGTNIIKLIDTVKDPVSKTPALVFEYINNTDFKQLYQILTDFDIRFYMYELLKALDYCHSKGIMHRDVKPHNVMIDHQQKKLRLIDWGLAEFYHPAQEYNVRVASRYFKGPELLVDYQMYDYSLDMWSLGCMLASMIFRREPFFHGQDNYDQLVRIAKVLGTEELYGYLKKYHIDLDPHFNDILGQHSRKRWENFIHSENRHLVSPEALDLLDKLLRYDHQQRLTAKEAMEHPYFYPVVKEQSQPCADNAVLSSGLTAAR
SMILES,IC50 (LATS1; in vitro) [nM],"ANKRD1 mRNA (qPCR, relative to DMSO) [1]","CTGF mRNA (qPCR, relative to DMSO) [1]","CYR61 mRNA (qPCR, relative to DMSO) [1]","VGLL3 mRNA (qPCR, relative to DMSO) [1]","ESR1 mRNA (qPCR, relative to DMSO) [1]","GREB1 mRNA (qPCR, relative to DMSO) [1]","TFF1 mRNA (qPCR, relative to DMSO) [1]",Rel. colony (colony-formation assay) (MCF-7 cells),Relative colony formation (MCF-7 cells; MCF-7 ERa D538G knock-in),Relative colony formation (MCF-7 cells; MCF-7 ERa Y537S knock-in),Relative colony formation (MCF-7 cells; MCF-7 WT),Relative colony formation (T47D cells; T47D ERa Y537S knock-in),Relative colony formation (T47D cells; T47D WT),"ANKRD1 mRNA (qPCR, relative to DMSO) [2]","LATS2 mRNA (qPCR, relative to DMSO) [2]","VGLL3 mRNA (qPCR, relative to DMSO) [2]","ESR1 mRNA (qPCR, relative to DMSO) [2]","GREB1 mRNA (qPCR, relative to DMSO) [2]","TFF1 mRNA (qPCR, relative to DMSO) [2]",other results
CCN(CC)c1nc(-c2ccncc2)nc2c(-c3ccc(Cl)cc3)cccc12 [VT02484],> 10000,1.2497 and 1.0358 and 0.9991,1.029 and 0.9638 and 0.9395,1.1798 and 0.914 and 0.9308,1.193 and 1.051 and 1.05,1.0519 and 1.0384 and 1.0263,1.1915 and 1.2181 and 1.0643,1.1521 and 1.0774 and 1.1271,0.94 and 1.05 and 1.08,1.12 and 1.04 and 1.03,0.96 and 0.91 and 1.03,0.96 and 0.89 and 1.02,0.96 and 0.91 and 1.03,1.12 and 0.89 and 0.98,0.9375 and 1.0569 and 0.9783,1.073 and 0.8452 and 1.234,1.127 and 1.023 and 0.9343,0.9424 and 1.008 and 0.8622,1.01 and 0.9864 and 0.9917,1.063 and 1.169 and 0.8376,"inhibition towards LATS (LATS1; in vitro, LATS1 and LATS2 (Fig. 5b, c)): showed no inhibition towards LATS"
NCC1CCN(c2nc(-c3ccncc3)nc3c(C#CCO)cccc23)CC1 [VT02956],0.76,120.896 and 131.016 and 139.426,10.8797 and 10.8657 and 10.8616,13.1424 and 13.7264 and 12.9668,31.437 and 32.235 and 31.533,0.1649 and 0.1855 and 0.1729,0.3079 and 0.3261 and 0.3014,0.0863 and 0.0862 and 0.094,0.41 and 0.36 and 0.33,0.39 and 0.37 and 0.34,0.41 and 0.42 and 0.45,0.32 and 0.27 and 0.35,0.41 and 0.42 and 0.48,0.39 and 0.48 and 0.51,39.7272 and 41.5085 and 42.3168,3.381 and 2.554 and 3.922,57.2973 and 54.8732 and 38.032,0.1783 and 0.1761 and 0.1829,0.3188 and 0.332 and 0.2804,0.2697 and 0.3023 and 0.214,LATS1 kinase activity (LATS1; Conc. 0.00016935 (µM)): 83.5285 and 93.8174; LATS1 kinase activity (LATS1; Conc. 0.00050805 (µM)): 56.9778 and 63.1654; LATS1 kinase activity (LATS1; Conc. 0.00152416 (µM)): 31.2859 and 31.2259; LATS1 kinase activity (LATS1; Conc. 0.00457247 (µM)): 3.14 and 1.742; YAP/TAZ dephosphorylation and ERα reduction (immunoblot) [3]: dose-dependently induces YAP/TAZ dephosphorylation and ERα reduction; remaining activity at 0.005 µM (CK2a2): 78%; remaining activity at 0.005 µM (PHKg2): 82%; remaining activity at 0.005 µM (SNRK): 86%

# — paper PMC8881512 (Nature Communications, 2022)
